In ChEMBL document CHEMBL5154783, “Design, synthesis, and evaluation of novel 3-thiophene derivatives as potent fungistatic and fungicidal reagents based on a conformational restriction strategy” (Eur J Med Chem, 2022):
≈ marks a conversion by molar mass, not a printed value. Calls of active or inactive are those of the source. The rule behind the calls is not given here.

Legend:
Candida albicans [1] = assay: Antibiofilm activity against Candida albicans […] assessed as inhibition of […] metabolism within the biofilm measured after 6 hrs by XTT reduction assay; format: functional
Candida albicans [2] = assay: Antifungal activity against FLC-resistant Candida albicans CaR assessed as fungal growth inhibition by CLSI based serial microbroth dilution method; format: functional
Candida parapsilosis = assay: Antifungal activity against Candida parapsilosis GIM 2.190 assessed as fungal growth inhibition by CLSI based serial microbroth dilution method; format: functional; conditions: Lodderomyces parapsilosis
[3] = Stability of the compound in human plasma assessed as parent compound remaining after […] by LC-MS/MS analysis; format: ADME, cell-free; conditions: read-out: Stability
MCF7 = assay: Cytotoxicity against human MCF7 cells assessed as reduction in cell viability incubated for 96 hrs by MTT assay; format: functional, cell-based; conditions: MCF7, 96 h
Candida albicans [4] = assay: Fungicidal activity against Candida albicans CPCC400616 measured after 48 hrs; format: functional
Candida albicans [5] = assay: Antifungal activity against FLC-resistant Candida albicans 311 assessed as fungal growth inhibition by CLSI based serial microbroth dilution method; format: functional
Candida albicans [6] = assay: Antibiofilm activity against Candida albicans […] assessed as inhibition of […] metabolism activity in the biofilm measured after 48 hrs by XTT reduction assay; format: functional
Nakaseomyces glabratus = assay: Antifungal activity against Candida glabrata clinical isolate assessed as fungal growth inhibition by CLSI based serial microbroth dilution method; format: functional
Candida albicans [7] = assay: Antifungal activity against FLC and ITC-resistant Candida albicans 17 assessed as fungal growth inhibition by CLSI based serial microbroth dilution method; format: functional
Cryptococcus neoformans = assay: Antifungal activity against Cryptococcus neoformans CGMCC 2.3161 assessed as fungal growth inhibition by CLSI based serial microbroth dilution method; format: functional
RAW264.7 = assay: Cytotoxicity against mouse RAW264.7 cells assessed as reduction in cell viability incubated for 96 hrs by MTT assay; format: functional, cell-based; conditions: RAW264.7, 96 h
Cell membrane [8] = assay: Disruption of membrane integrity in Candida albicans ATCC SC5314 assessed as cell membrane damage at 16 ug/ml incubated for 48 hrs by transmission electron microscopy; format: subcellular; conditions: dose 16.0 µg/ml
Candida albicans [9] = assay: Antibiofilm activity against Candida albicans […] assessed as inhibition of […] metabolism activity in the biofilm measured after 24 hrs by XTT reduction assay; format: functional
Candida albicans [10] = assay: Antifungal activity against FLC-resistant Candida albicans 901 assessed as fungal growth inhibition by CLSI based serial microbroth dilution method; format: functional
Candida tropicalis = assay: Antifungal activity against Candida tropicalis CGMCC 2.3739 assessed as fungal growth inhibition by CLSI based serial microbroth dilution method; format: functional
[11] = Stability of the compound in human plasma assessed as half life measured after […] by LC-MS/MS analysis; format: ADME, cell-free
Aspergillus fumigatus = assay: Antifungal activity against Aspergillus fumigatus CGMCC 3.7795 assessed as fungal growth inhibition by CLSI based serial microbroth dilution method; format: functional
Candida albicans [12] = assay: Antifungal activity against FLC-resistant Candida albicans 632 assessed as fungal growth inhibition by CLSI based serial microbroth dilution method; format: functional
Candida albicans [13] = assay: Antifungal activity against Candida albicans CPCC400616 assessed as fungal growth inhibition by CLSI based serial microbroth dilution method; format: functional
[14] = Cytotoxicity against human HepG2 cells assessed as reduction in cell viability incubated for 96 hrs by MTT assay; format: toxicity, cell-based
Candida albicans [15] = assay: Antifungal activity against FLC-resistant Candida albicans 904 assessed as fungal growth inhibition by CLSI based serial microbroth dilution method; format: functional
Pichia kudriavzevii = assay: Antifungal activity against Candida krusei GIM 2.1 assessed as fungal growth inhibition by CLSI based serial microbroth dilution method; format: functional
Cell membrane [16] = assay: Disruption of membrane integrity in Candida albicans ATCC SC5314 assessed as endogenous substances leakage at 16 ug/ml incubated for 48 hrs by transmission electron microscopy; format: subcellular; conditions: dose 16.0 µg/ml
Cell membrane [17] = assay: Disruption of membrane integrity in Candida albicans ATCC SC5314 assessed as rupture of fungal cells at 16 ug/ml incubated for 48 hrs by transmission electron microscopy; format: subcellular; conditions: dose 16.0 µg/ml
[18] = Stability of the compound in human plasma assessed as parent compound remaining after 120 hrs by LC-MS/MS analysis; format: ADME, cell-free; conditions: read-out: Stability
[19] = Cytotoxicity against human THLE-2 cells assessed as reduction in cell viability incubated for 96 hrs by MTT assay; format: toxicity, cell-based
Cell membrane [20] = assay: Disruption of membrane integrity in Candida albicans ATCC SC5314 assessed as cell wall damage at 16 ug/ml incubated for 48 hrs by transmission electron microscopy; format: subcellular; conditions: dose 16.0 µg/ml
A549 = assay: Cytotoxicity against human A549 cells assessed as reduction in cell viability incubated for 96 hrs by MTT assay; format: functional, cell-based; conditions: A549, 96 h
Candida albicans [21] = assay: Antifungal activity against FLC-resistant Candida albicans 100 assessed as fungal growth inhibition by CLSI based serial microbroth dilution method; format: functional
Candida albicans [22] = assay: Antifungal activity against Candida albicans ATCC SC5314 assessed as fungal growth inhibition by CLSI based serial microbroth dilution method; format: functional
Candida albicans [23] = assay: Antifungal activity against FLC-resistant Candida albicans 103 assessed as fungal growth inhibition by CLSI based serial microbroth dilution method; format: functional
Candida albicans [24] = assay: Antibiofilm activity against Candida albicans […] assessed as inhibition of […] metabolism within the biofilm measured after 3 hrs by XTT reduction assay; format: functional
Candida albicans [25] = assay: Antibiofilm activity against Candida albicans […] assessed as inhibition of […] metabolism within the biofilm measured after 18 hrs by XTT reduction assay; format: functional
[26] = target: T1, Lanosterol 14-alpha demethylase (Candida albicans (strain SC5314 / ATCC MYA-2876) (Yeast), UniProt P10613); assay: Inhibition of CYP51 in Candida albicans ATCC SC5314 assessed as lanosterol level at 0.25 ug/ml measured after 18 hrs by GC-MS analysis relative to control; design: scale not given: the % may be the effect or the level left; conditions: at 0.25 µg/mL
[27] = target: T1, Lanosterol 14-alpha demethylase; assay: Inhibition of CYP51 in Candida albicans ATCC SC5314 assessed as eburicol level at 0.25 ug/ml measured after 18 hrs by GC-MS analysis relative to control; design: scale not given: the % may be the effect or the level left; conditions: at 0.25 µg/mL
[28] = target: T1, Lanosterol 14-alpha demethylase; assay: Inhibition of CYP51 in Candida albicans ATCC SC5314 assessed as 14alpha-methylergosta-8,24(28)-dien-3beta-6alpha-diol level at 0.25 ug/ml measured after 18 hrs by GC-MS analysis relative to control; design: scale not given: the % may be the effect or the level left; conditions: at 0.25 µg/mL
[29] = target: T1, Lanosterol 14-alpha demethylase; assay: Inhibition of CYP51 in Candida albicans ATCC SC5314 assessed as ergosterol level at 0.25 ug/ml measured after 18 hrs by GC-MS analysis (reference value: 96.93 %); design: scale not given: the % may be the effect or the level left; conditions: at 0.25 µg/mL
[30] = target: T1, Lanosterol 14-alpha demethylase; assay: Inhibition of CYP51 in Candida albicans ATCC SC5314 assessed as unknown sterol level at 0.25 ug/ml measured after 18 hrs by GC-MS analysis (reference value: 3.07 %); design: scale not given: the % may be the effect or the level left; conditions: at 0.25 µg/mL

T1 sequence (P10613 whole entry): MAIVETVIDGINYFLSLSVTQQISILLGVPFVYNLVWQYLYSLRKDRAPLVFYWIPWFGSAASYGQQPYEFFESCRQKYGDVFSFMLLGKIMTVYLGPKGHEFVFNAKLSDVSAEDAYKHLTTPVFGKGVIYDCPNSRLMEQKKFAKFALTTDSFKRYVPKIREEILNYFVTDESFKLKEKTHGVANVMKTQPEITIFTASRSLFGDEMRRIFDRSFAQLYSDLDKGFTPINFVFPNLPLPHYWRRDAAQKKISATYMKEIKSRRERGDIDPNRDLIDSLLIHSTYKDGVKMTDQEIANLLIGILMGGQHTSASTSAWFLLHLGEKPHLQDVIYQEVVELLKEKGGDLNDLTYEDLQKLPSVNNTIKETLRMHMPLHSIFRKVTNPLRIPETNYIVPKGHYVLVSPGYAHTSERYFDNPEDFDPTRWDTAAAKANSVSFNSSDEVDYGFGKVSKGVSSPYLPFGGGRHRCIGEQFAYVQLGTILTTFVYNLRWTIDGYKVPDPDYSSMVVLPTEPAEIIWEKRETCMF

| Structure (SMILES) | MIC50 (Candida albicans [1]) [µg/mL] | MIC (Candida albicans [2]) [µg/mL] | MIC (Candida parapsilosis) [µg/mL] | IC50 (MCF7) [µM] | MFC (Candida albicans [4]) [µg/mL] | MIC (Candida albicans [5]) [µg/mL] | MIC50 (Candida albicans [6]) [µg/mL] | MIC (Nakaseomyces glabratus) [µg/mL] | MIC (Candida albicans [7]) [µg/mL] | MIC (Cryptococcus neoformans) [µg/mL] | MIC (Candida albicans [10]) [µg/mL] | MIC (Candida tropicalis) [µg/mL] | MIC (Aspergillus fumigatus) [µg/mL] | MIC (Candida albicans [12]) [µg/mL] | MIC (Candida albicans [13]) [µg/mL] | MIC (Candida albicans [15]) [µg/mL] | MIC (Pichia kudriavzevii) [µg/mL] | MIC (Candida albicans [21]) [µg/mL] | MIC (Candida albicans [22]) [µg/mL] | MIC (Candida albicans [23]) [µg/mL] | further results |
| --- | --- | --- | --- | --- | --- | --- | --- | --- | --- | --- | --- | --- | --- | --- | --- | --- | --- | --- | --- | --- | --- |
| Fc1cccc(F)c1CC1(Cn2ccnc2)COC(c2ccc(-c3ccsc3)cc2)=N1 (centres undefined) | 0.5 (≈ 1.15 µM) | 1 (≈ 2.3 µM) | 0.125 (≈ 0.287 µM) | > 50 | 1 (≈ 2.3 µM) | 8 (≈ 18.4 µM) | > 64 | 0.06 (≈ 0.138 µM) | 8 (≈ 18.4 µM) | 0.125 (≈ 0.287 µM) | 0.5 (≈ 1.15 µM) | 0.015 (≈ 0.0344 µM) | 8 (≈ 18.4 µM) | 4 (≈ 9.18 µM) | 0.015 (≈ 0.0344 µM) | 2 (≈ 4.59 µM) | 0.25 (≈ 0.574 µM) | 4 (≈ 9.18 µM) | 0.06 (≈ 0.138 µM) | 2 (≈ 4.59 µM) | remaining [3]: 88.5%; IC50 (RAW264.7): 7.58 µM; Activity (Cell membrane [8]): Active; MIC50 (Candida albicans [9]): 32 µg/mL (≈ 73.5 µM); half-life [11]: > 4.8 h; IC50 at 96 h [14]: 34.2 µM; Activity (Cell membrane [16]): Active; Activity (Cell membrane [17]): Active; remaining at 120 h [18]: 90.1%; IC50 at 96 h [19]: 22.6 µM; Activity (Cell membrane [20]): Active; IC50 (A549): > 50 µM; MIC50 (Candida albicans [24]): 0.25 µg/mL (≈ 0.574 µM); MIC50 (Candida albicans [25]): 4 µg/mL (≈ 9.18 µM) |
| OC(Cn1cncn1)(Cn1cncn1)c1ccc(F)cc1F [FLUCONAZOLE] | 32 (≈ 104 µM) | > 64 | 2 (≈ 6.53 µM) | > 50 | > 64 | > 64 | > 64 | 4 (≈ 13.1 µM) | > 64 | 4 (≈ 13.1 µM) | 64 (≈ 209 µM) | 0.5 (≈ 1.63 µM) | > 64 | > 64 | 1 (≈ 3.27 µM) | 32 (≈ 104 µM) | 8 (≈ 26.1 µM) | > 64 | 0.5 (≈ 1.63 µM) | > 64 | IC50 (RAW264.7): > 50 µM; Activity [26]: 34.42%; Activity (Cell membrane [8]): Active; MIC50 (Candida albicans [9]): > 64 µg/mL; Activity [27]: 29.02%; Activity [28]: 22.35%; IC50 at 96 h [14]: > 50 µM; Activity (Cell membrane [16]): Active; Activity (Cell membrane [17]): Active; Activity [29]: 3.15%; IC50 at 96 h [19]: > 50 µM; Activity (Cell membrane [20]): Active; IC50 (A549): > 50 µM; MIC50 (Candida albicans [24]): 16 µg/mL (≈ 52.2 µM); MIC50 (Candida albicans [25]): 64 µg/mL (≈ 209 µM); Activity [30]: 1.59% |
| Fc1cccc(F)c1CC1(Cn2ccnn2)COC(c2ccc(-c3ccsc3)cc2)=N1 (centres undefined) |  |  | > 64 |  |  |  |  | > 64 |  | > 64 |  | > 64 | > 64 |  | 16 (≈ 36.7 µM) |  | > 64 |  | 16 (≈ 36.7 µM) |  |  |
| c1ccc(CC2(Cn3ccnc3)COC(c3ccc(-c4ccsc4)cc3)=N2)cc1 (centres undefined) |  | 32 (≈ 80.1 µM) | 0.5 (≈ 1.25 µM) |  |  | 4 (≈ 10 µM) |  | > 64 | 4 (≈ 10 µM) | 8 (≈ 20 µM) | 4 (≈ 10 µM) | 0.25 (≈ 0.626 µM) | 16 (≈ 40 µM) | 16 (≈ 40 µM) | 0.25 (≈ 0.626 µM) | 2 (≈ 5.01 µM) | > 64 | 2 (≈ 5.01 µM) | 0.5 (≈ 1.25 µM) | 2 (≈ 5.01 µM) |  |
